# Data reported in patent US6310040A, “Treating retinal neuronal disorders by the application of insulin-like growth factors and analogs” (Cephalon, Inc., priority 1992, dated 2001).
# Where two headings read alike, the source gives them in different places. Non-standard residues stand in square brackets, D forms with d. No end group written: not given here. Tyr(3,5-I2) = N[C@@H](Cc1cc(I)c(O)c(I)c1)C(=O)O
# Tests used:
# photoreceptor cells = format: cell-based, rat
# Protocol: To quantitate this assay, we developed a cell-based Rho42 ELISA test as follows: Several postnatal rat retinal cultures containing different numbers of cells, were incubated for 2-4 days following which cultures were fixed and immunolabelled with either the Rho42 monoclonal antibody, or the nonspecific monoclonal antibody P3, secreted by the myeloma cell line P3X6Ag8. Antibody binding was detected using a secondary antibody labelled with horseradish peroxidase and a chromogenic substrate O-phenylenediamine (OPD), having a maximum absorption wavelength of 490 nm. The level of absorption of light at 490 nm measured in the cultures is therefore directly related to the amount of primary antibody that originally bound to the cells. In FIG. 8 it can be seen that there is a linear relationship between the level of absorption at 490 nm and the number of cells in each culture.
# Next, rat retinal neuronal cultures were incubated in the presence of IGF-I or IGF-II (54-67) for 48 hours following which they were subjected to the cell-based ELISA test as described above. Both IGF-I and IGF-II (54-67) promoted the survival of photoreceptor cells by 20-30% compared with control untreated cultures.
# [1] = system: postnatal rat retinal neuronal cells; test: calcein-AM survival assay, dissociated postnatal rat retinal neuronal cultures; format: cell-based; details: for fluorescence values (total number of cells surviving) versus untreated cultures: peptides 100 uM, postnatal rat retina; for fluorescence values (total number of cells surviving) versus untreated cultures / relative fluorescence units (total number of cells surviving) versus untreated control: 4 days; for relative fluorescence units (total number of cells surviving) versus untreated control: 100 nM, postnatal day 6 rat retina
# Protocol: (§1) Retinas were dissected from embryonic chicks, dissociated by enzymatic digestion and cultured in vitro in defined insulin/serum-free medium according to Sato et al. (1979, Proc. Natl. Acad. Sci. USA 76:514-517). The number of cells in culture was measured using the vital stain calcein-AM. All cells are permeable to calcein-AM, but only live cells are capable of converting this compound into a fluorescent derivative detectable by ordinary methods. In the first experiment, calcein-AM (6 μM) was added to different cultures of retinal cells and the relationship between the level of fluorescence and the number of cells was determined.
# To determine the concentration of IGF-I required to promote survival of pre- or postnatal retinal neurons in culture, the following experiments were carried out: Retinal neurons were prepared from dissociated retina obtained from 10 day old chick embryos, or from […] postnatal day 6 rats as described above. Cultures were incubated in the presence of increasing concentrations of IGF-I and the number of cells surviving at 48 hours post-treatment was measured in the calcein-AM assay. […] Based upon previously published data, the concentrations of IGF-I that promote neuronal cell survival in our experiments are consistent with the fact that IGF-I is acting through its own receptor (Karey et al., 1988, In Vitro Cell. Dev. Biol. 24:1107-1113; Ballard et al., 1988, Biochem. J. 249:721-726).
# To determine whether retinal survival could be enhanced when incubated in the presence of functional derivatives of IGF-I and IGF-II, a linear fragment of IGF-II that is relatively conserved within both IGF-I and IGF-II, was tested in our assay. The fragment contained a sequence of 14 amino acids from IGF-II (amino acids 54-67, wherein the amino terminal amino acid of IGF-II is number 1).
# To determine whether IGF-I, IGF-II, and IGF-III can promote the survival of retinal neuronal cells, dissociated cultures of postnatal rat retina were prepared and assayed for the total number of cells present after incubation in the presence or absence of IGFs. Retinas were dissected from postnatal day 6 rats, dissociated by enzymatic digestion and seeded at a density of 6.25×10^4 cells/cm^2 in defined insulin/serum-free media (Bottenstein et al., 1979, PNAS 76:514-517). These cultures are heterogenous, comprised of at least five independent retinal neuronal cell subpopulations, i.e., amacrine, bipolar, horizontal, photoreceptor and ganglion cells. Cultures were incubated in the presence or absence of 100 nM of each of the IGFs. The total number of cells remaining after 4 days was assayed by incubation with the vital stain calcein-AM at 6 uM. This compound is taken up by all cells but can only be converted to a fluorescent derivative by live cells.
# To determine whether linear peptide derivatives of IGFs can support the survival of retinal neuronal cells, dissociated cultures of postnatal rat retina were prepared and assayed for the total number of cells present after incubation in the presence or absence of peptides (100 uM). Retinal neuronal cell cultures were prepared as described in Example 11 and the total number of cells surviving analyzed analogously. Peptides were derived from the amino acid regions 7-30 and 55-70 of IGF-I and […] and the region within IGF-II, amino acids 54-67.
# retinal neuronal cells = test: calcein-AM survival assay, dissociated embryonic chick retinal cultures; format: cell-based; details: 48 hours post-treatment
# Protocol: To determine whether IGF-1 acts to promote survival of retinal neuronal cells, dissociated cultures of avian retina were prepared from animals at various developmental ages and the number of cells present in the cultures, following incubation for 48 hours in the presence or absence of IGF-I, was measured.
# as §1
# In the next experiment, IGF-I was added to half of the cultures at a final concentration of 100 nM, and the number of cells remaining at 48 hours post-treatment was measured using the calcein-AM assay described above. […]
# retinal neurons = test: retinal neurite regeneration, phase contrast microscopy; format: cell-based; details: 100 nM, 2-4 days following treatment, insulin/serum-free media
# Protocol: To determine whether IGF-I affects retinal neurite regeneration, a population of neurons prepared from dissociated retina was cultured in defined insulin/serum-free media in the presence or absence of 100 nM IGF-I. Cultures were examined by phase contrast microscopy at 2-4 days following IGF-I treatment.
# [2] = system: photoreceptor subpopulation of cells; test: Rho42 antibody fluorescence staining of postnatal rat retinal neuronal cultures; format: cell-based; details: 100 nM, 48 hours
# Protocol: To determine whether IGF-I or IGF-II (54-67) could specifically promote survival of the photoreceptor subpopulation of cells in rat retinal neuronal cultures, the following experiments were carried out: The monoclonal antibody Rho42, which binds to an antigenic epitope within the extracellular domain of rhodopsin expressed on the surface of rod photoreceptor cells (Molday and MacKenzie, 1983, Biochemistry 22:653), was used in this assay. Postnatal rat retinal neuronal cultures were incubated in the presence or absence of 100 nM of IGF-I for 48 hours. Cells were harvested and reacted with Rho42 to which a fluorescent label had been added. Slides were prepared and the level of fluorescence in the cultures was qualitatively assessed using a fluorescence microscope.
compound,measurement,setting,value
"CC(C)C[C@H](NC(=O)[C@H](C)N)C(=O)N[C@@H](CC(C)C)C(=O)N[C@@H](CCC(=O)O)C(=O)N[C@H](C(=O)N[C@@H](Cc1ccc(O)cc1)C(=O)N[C@@H](CS)C(=O)N[C@@H](C)C(=O)N[C@H](C(=O)N1CCC[C@H]1C(=O)N[C@@H](C)C(=O)N[C@@H](CCCCN)C(=O)N[C@@H](CO)C(=O)N[C@@H](CCC(=O)O)C(=O)O)[C@@H](C)O)[C@@H](C)O [IGF-II (54-67), ALLETYCATPAKSE]",promoted survival of photoreceptor cells compared with control untreated cultures,photoreceptor cells; 48 h,20-30%
CAPAKSE,fluorescence values (total number of cells surviving) versus untreated cultures,[1],higher fluorescence values than untreated cultures
CATPAKSE,fluorescence values (total number of cells surviving) versus untreated cultures,[1],higher fluorescence values than untreated cultures
EALLETYCATPAKSE,fluorescence values (total number of cells surviving) versus untreated cultures,[1],higher fluorescence values than untreated cultures
GAELVDALQFVSGDRGFYFNKPTG (GAELVDALQFYSGDRGFYFNKPTG),fluorescence values (total number of cells surviving) versus untreated cultures,[1],higher fluorescence values than untreated cultures
"IGF-I: Recombinant human insulin-like growth factor I (somatomedin C), 70 amino acids, SEQ ID NO:1","enhanced survival of cells compared to control, untreated cultures","retinal neuronal cells; 100 nM, retinal cultures from embryos at 8, 10, 12 and 14 days of age",20-60%
same,survival of prenatal retinal neurons versus concentration,"retinal neuronal cells; 10 day old chick embryos, increasing concentrations",promote survival of retinal neurons in culture in a dose-dependent manner
same,relative fluorescence units (total number of cells surviving) versus untreated control,[1],higher than that found for untreated control cultures
same,survival of postnatal retinal neurons versus concentration,"[1]; postnatal day 6 rats, increasing concentrations, 48 hours post-treatment",promote survival of retinal neurons in culture in a dose-dependent manner
same,cells with neurites (axonal regeneration),retinal neurons,more cells with neurites than untreated control cultures
same,"level of Rho42 fluorescence (photoreceptor survival), qualitative",[2],increased level of fluorescence compared to untreated cultures
same,promoted survival of photoreceptor cells compared with control untreated cultures,"photoreceptor cells; 48 hours, rat retinal neuronal cultures",20-30%
"IGF-II: Recombinant human insulin-like growth factor II, 67 amino acids, SEQ ID NO:16",relative fluorescence units (total number of cells surviving) versus untreated control,[1],higher than that found for untreated control cultures
"IGF-III: truncated form of IGF-I lacking the three N-terminal amino acid residues, SEQ ID NO:2",relative fluorescence units (total number of cells surviving) versus untreated control,[1],higher than that found for untreated control cultures
"TY(I2)CAPAKSE (T[Tyr(3,5-I2)]CAPAKSE) [iodinated TYCAPAKSE]",fluorescence values (total number of cells surviving) versus untreated cultures,[1],higher fluorescence values than untreated cultures
TYCAPA,fluorescence values (total number of cells surviving) versus untreated cultures,[1],higher fluorescence values than untreated cultures
YCAPA,fluorescence values (total number of cells surviving) versus untreated cultures,[1],higher fluorescence values than untreated cultures
